Measured values published in patent US5071749A, “Glycopetide antibiotic PA-45052-B” (Shionogi & Co., Ltd., priority 1987, dated 1991).
≈ marks a conversion by molar mass, not a printed value.

Assays:
[1] = tested on: Staphylococcus aureus SR14; assay: In vitro antibacterial activity, agar dilution method (MIC); type: cell-based; conditions: Staphylococcus aureus SR14, penicillin-resistant, 37° C., 18-20 hrs
[2] = tested on: Staphylococcus aureus SR3131; assay: as above; type: cell-based; conditions: Staphylococcus aureus SR3131, methicillin-resistant, 37° C., 18-20 hrs
[3] = tested on: Staphylococcus aureus SR1626; assay: as above; type: cell-based; conditions: Staphylococcus aureus SR1626, methicillin-resistant, 37° C., 18-20 hrs
[4] = tested on: Staphylococcus aureus SR3626; assay: as above; type: cell-based; conditions: Staphylococcus aureus SR3626, methicillin-resistant, 37° C., 18-20 hrs
[5] = tested on: Staphylococcus aureus PDA 209P JC-1; assay: as above; conditions: 37° C., 18-20 hrs
[6] = tested on: Staphylococcus aureus SMITH; assay: as above; conditions: 37° C., 18-20 hrs
[7] = tested on: Staphylococcus aureus ATCC 25923; assay: as above; conditions: 37° C., 18-20 hrs
[8] = tested on: Streptococcus epidermidis ATCC 14490; assay: as above; conditions: 37° C., 18-20 hrs
[9] = tested on: Streptococcus pyogenes C-203; assay: as above; conditions: horse serum 0.5%, 37° C., 18-20 hrs
[10] = tested on: Streptococcus pneumoniae Type I; assay: as above; conditions: horse serum 0.5%, 37° C., 18-20 hrs
[11] = tested on: Streptococcus agalactiae SR 1247; assay: as above; conditions: horse serum 0.5%, 37° C., 18-20 hrs
[12] = tested on: Streptococcus faecalis SR 1004; assay: as above; conditions: horse serum 0.5%, 37° C., 18-20 hrs
mouse = assay: LD50 on injection to mouse; type: in vivo
Text: The growth-stimulating agent of this invention not only promotes growth of animals but also improves feed efficiency. Naturally, it is effective against infections by bacteria.

[13] = tested on: Cl. perfringens NCTC-10239; type: cell-based, Clostridium perfringens; conditions: strain NCTC-10239, origin cow; GAM agar, anaerobic, 37° C., 24 hours
[14] = tested on: Cl. perfringens FC 2208/75; type: cell-based, Clostridium perfringens; conditions: strain FC 2208/75, origin cow; GAM agar, anaerobic, 37° C., 24 hours
Cl. perfringens S-79 = type: cell-based, Clostridium perfringens; conditions: strain S-79, origin cow; GAM agar, anaerobic, 37° C., 24 hours
Cl. perfringens CW-1970 = type: cell-based, Clostridium perfringens; conditions: strain CW-1970, origin cow; GAM agar, anaerobic, 37° C., 24 hours
Cl. perfringens 6B-10 = type: cell-based, Clostridium perfringens; conditions: strain 6B-10, origin cow; GAM agar, anaerobic, 37° C., 24 hours
[15] = tested on: Cl. perfringens NCTC-8239; type: cell-based, Clostridium perfringens; conditions: strain NCTC-8239, origin cow; GAM agar, anaerobic, 37° C., 24 hours
[16] = tested on: Cl. perfringens NCTC-8798; type: cell-based, Clostridium perfringens; conditions: strain NCTC-8798, origin cow; GAM agar, anaerobic, 37° C., 24 hours
Cl. perfringens SP07 = type: cell-based, Clostridium perfringens; conditions: strain SP07, origin chicken; GAM agar, anaerobic, 37° C., 24 hours
Cl. perfringens 9C-02 = type: cell-based, Clostridium perfringens; conditions: strain 9C-02, origin chicken; GAM agar, anaerobic, 37° C., 24 hours
Cl. perfringens 3C-01 = type: cell-based, Clostridium perfringens; conditions: strain 3C-01, origin chicken; GAM agar, anaerobic, 37° C., 24 hours
Cl. perfringens 02441 = type: cell-based, Clostridium perfringens; conditions: strain 02441, origin chicken; GAM agar, anaerobic, 37° C., 24 hours
broiler chicks = assay: Growth-stimulation test on chicks; type: in vivo, broiler chicks (arbor acre); conditions: 20 ppm in feed for 14 days; for FCR: feed efficiency (B/A) / FCR (%), index when control group is 100 / Increase of weight (%), index when control group is 100: broiler chicks; for Increase of weight A (M = g) ± SD (average increase of weight): broiler chicks 8 to 22 days old, 24 chicks; for FCR (%), index when control group is 100 / Increase of weight (%), index when control group is 100: control = 100
Text: The growth-stimulating activities of PA-45052-A, PA-45052-B and PA-45052-E on broiler chicks (arbor acre, 8 days old) were investigated by using the known antibiotic thiopeptin as a referential agent. Chicks were fed with a feed mush (crude protein (CP) concentration 18%, each agent's concentration 20 ppm, not supplemented with other antibiotics) for 14 days in the battery brooders. The method of this experiment was as follows. After chicks were fed by floor pen with a feed (CP concentration 23%) from 0 to 8 days, they were divided into 5 groups (24 chicks a group, 12 male and 12 female) in such a way that the average weights of the groups are equal. To each group was administered PA-45052-A (20 ppm), PA-45052-B (20 ppm), PA-45052-E (20 ppm), thiopeptin (20 ppm) or only a feed (CP 18%) for 14 days. Each group was fed in cages (435×600×410 mm, each cage has 6-7 chicks) at 26°±2° C. for 14 days (up to 22 days old). Effectiveness was estimated from the increase of weight and the feed efficiency.

[17] = tested on: Staphylococcus aureus SR 2030; assay: Antibacterial activity in vivo, mouse intraperitoneal infection (ED50); conditions: Slc-ICR female mice, i.p. inoculation of S. aureus SR 2030 (methicillin-resistant); s.c. dosing 1 and 5 hours later; survival on day 7
Method: (§1) Test method: The test organism is intraperitoneally inoculated to Slc-ICR female mice (8 mice per group), and PA-45052-A, -B or -C (two-fold dilution) is subcutaneously administered twice one hour later and 5 hours later.
(§2) Results: The 50% effective dose (ED50) is calculated from the survival rate on day 7.

[18] = tested on: Staphylococcus aureus SR 3637; assay: as above; conditions: Slc-ICR female mice, i.p. inoculation of S. aureus SR 3637 (methicillin-resistant); s.c. dosing 1 and 5 hours later; survival on day 7
Method: as §1, §2

[19] = tested on: Streptococcus pneumoniae Type I; assay: as above; conditions: Slc-ICR female mice, i.p. inoculation of Streptococcus pneumoniae Type I; s.c. dosing 1 and 5 hours later; survival on day 7
Method: as §1, §2

[20] = tested on: Streptococcus pyogenes C-203; assay: as above; conditions: Slc-ICR female mice, i.p. inoculation of Streptococcus pyogenes C-203; s.c. dosing 1 and 5 hours later; survival on day 7
Method: as §1, §2

Row | Compound | MIC [1] | MIC [2] | MIC [3] | MIC [4] | MIC [5] | MIC [6] | MIC [7] | MIC [8] | MIC [9] | MIC [10] | MIC [11] | MIC [12] | LD50 (mouse) | MIC [13] | MIC [14] | MIC (Cl. perfringens S-79) | FCR: feed efficiency (B/A) (broiler chicks) | Increase of weight A (M = g) ± SD (average increase of weight) (broiler chicks) | FCR (%), index when control group is 100 (broiler chicks) | Increase of weight (%), index when control group is 100 (broiler chicks) | further results
1 | CC(C)CC(C(=O)NC1C(=O)NC(CC(N)=O)C(=O)NC2C(=O)NC3C(=O)NC(C(=O)NC(C(=O)O)c4cc(O)cc(O)c4-c4cc3ccc4O)C(OC3CC(C)(N)C(O)C(C)O3)c3ccc(c(Cl)c3)Oc3cc2cc(c3OC2OC(CO)C(O)C(O)C2OC2CC(C)(N)C(O)C(C)O2)Oc2ccc(cc2Cl)C1O)N(C)C (centres unmarked) [PA-45052-D] | 0.39 µg/mL (≈ 0.243 µM) | 0.39 µg/mL (≈ 0.243 µM) | 0.39 µg/mL (≈ 0.243 µM) | 0.78 µg/mL (≈ 0.486 µM) | 0.2 µg/mL (≈ 0.124 µM) | 0.39 µg/mL (≈ 0.243 µM) | 0.78 µg/mL (≈ 0.486 µM) | 0.78 µg/mL (≈ 0.486 µM) | 0.2 µg/mL (≈ 0.124 µM) | 0.2 µg/mL (≈ 0.124 µM) | 0.2 µg/mL (≈ 0.124 µM) | 0.78 µg/mL (≈ 0.486 µM) | – | – | – | – | – | – | – | – | –
2 | CC(C)CC(C(=O)NC1C(=O)NC(CC(N)=O)C(=O)NC2C(=O)NC3C(=O)NC(C(=O)NC(C(=O)O)c4cc(O)cc(O)c4-c4cc3ccc4O)C(OC3CC(C)(N)C(O)C(C)O3)c3ccc(c(Cl)c3)Oc3cc2cc(c3OC2OC(CO)C(O)C(O)C2O)Oc2ccc(cc2Cl)C1O)N(C)C (centres unmarked) [PA-45052-E] | 0.78 µg/mL (≈ 0.533 µM) | 0.78 µg/mL (≈ 0.533 µM) | 0.78 µg/mL (≈ 0.533 µM) | 0.78 µg/mL (≈ 0.533 µM) | 0.39 µg/mL (≈ 0.267 µM) | 0.78 µg/mL (≈ 0.533 µM) | 0.78 µg/mL (≈ 0.533 µM) | 3.13 µg/mL (≈ 2.14 µM) | 0.39 µg/mL (≈ 0.267 µM) | 0.39 µg/mL (≈ 0.267 µM) | 0.39 µg/mL (≈ 0.267 µM) | 1.56 µg/mL (≈ 1.07 µM) | – | – | – | – | – | – | – | – | –
3 | CNC(CC(C)C)C(=O)NC1C(=O)NC(CC(N)=O)C(=O)NC2C(=O)NC3C(=O)NC(C(=O)NC(C(=O)O)c4cc(O)cc(O)c4-c4cc3ccc4O)C(OC3CC(C)(N)C(O)C(C)O3)c3ccc(c(Cl)c3)Oc3cc2cc(c3OC2OC(CO)C(O)C(O)C2O)Oc2ccc(cc2Cl)C1O (centres unmarked) [PA-45052-B] | 0.78 µg/mL (≈ 0.538 µM) | 0.39 µg/mL (≈ 0.269 µM) | 0.78 µg/mL (≈ 0.538 µM) | 0.39 µg/mL (≈ 0.269 µM) | 0.39 µg/mL (≈ 0.269 µM) | 0.78 µg/mL (≈ 0.538 µM) | 0.39 µg/mL (≈ 0.269 µM) | 1.56 µg/mL (≈ 1.08 µM) | 0.2 µg/mL (≈ 0.138 µM) | 0.2 µg/mL (≈ 0.138 µM) | 0.39 µg/mL (≈ 0.269 µM) | 0.78 µg/mL (≈ 0.538 µM) | 1439 mg/kg | 0.2 µg/mL (≈ 0.138 µM) | 0.39 µg/mL (≈ 0.269 µM) | 0.39 µg/mL (≈ 0.269 µM) | 1.60 | 438.5 ± 51.6 g | 93.6% | 105.4% | MIC (Cl. perfringens CW-1970): 0.39 µg/mL (≈ 0.269 µM); MIC (Cl. perfringens 6B-10): 0.39 µg/mL (≈ 0.269 µM); MIC [15]: 0.2 µg/mL (≈ 0.138 µM); MIC [16]: 0.39 µg/mL (≈ 0.269 µM); MIC (Cl. perfringens SP07): 0.2 µg/mL (≈ 0.138 µM); MIC (Cl. perfringens 9C-02): 0.39 µg/mL (≈ 0.269 µM); MIC (Cl. perfringens 3C-01): 0.78 µg/mL (≈ 0.538 µM); MIC (Cl. perfringens 02441): 0.39 µg/mL (≈ 0.269 µM); ED50 (50% effective dose) [17]: 1.45 mg/kg/dose; ED50 (50% effective dose) [18]: 2.84 mg/kg/dose; ED50 (50% effective dose) [19]: 0.38 mg/kg/dose; ED50 (50% effective dose) [20]: 0.44 mg/kg/dose
4 | thiopeptin [reference compound] | – | – | – | – | – | – | – | – | – | – | – | – | – | – | – | – | 1.62 | 431.5 ± 53.4 g | 94.7% | 103.7% | –
5 | CNC(CC(C)C)C(=O)NC1C(=O)NC(CC(N)=O)C(=O)NC2C(=O)NC3C(=O)NC(C(=O)NC(C(=O)O)c4cc(O)cc(O)c4-c4cc3ccc4O)C(OC3CC(C)(N)C(O)C(C)O3)c3ccc(c(Cl)c3)Oc3cc2cc(c3OC2OC(CO)C(O)C(O)C2OC2CC(C)(N)C(O)C(C)O2)Oc2ccc(cc2Cl)C1O (centres unmarked) [PA-45052-A] | 0.39 µg/mL (≈ 0.245 µM) | 0.39 µg/mL (≈ 0.245 µM) | 0.39 µg/mL (≈ 0.245 µM) | 0.39 µg/mL (≈ 0.245 µM) | 0.2 µg/mL (≈ 0.126 µM) | 0.39 µg/mL (≈ 0.245 µM) | 0.39 µg/mL (≈ 0.245 µM) | 0.78 µg/mL (≈ 0.49 µM) | 0.2 µg/mL (≈ 0.126 µM) | 0.1 µg/mL (≈ 0.0628 µM) | 0.2 µg/mL (≈ 0.126 µM) | 0.78 µg/mL (≈ 0.49 µM) | > 1000 mg/kg | 0.2 µg/mL (≈ 0.126 µM) | 0.39 µg/mL (≈ 0.245 µM) | 0.39 µg/mL (≈ 0.245 µM) | 1.63 | 440.9 ± 60.4 g | 95.3% | 105.9% | MIC (Cl. perfringens CW-1970): 0.39 µg/mL (≈ 0.245 µM); MIC (Cl. perfringens 6B-10): 0.39 µg/mL (≈ 0.245 µM); MIC [15]: 0.2 µg/mL (≈ 0.126 µM); MIC [16]: 0.39 µg/mL (≈ 0.245 µM); MIC (Cl. perfringens SP07): 0.2 µg/mL (≈ 0.126 µM); MIC (Cl. perfringens 9C-02): 0.39 µg/mL (≈ 0.245 µM); MIC (Cl. perfringens 3C-01): 0.78 µg/mL (≈ 0.49 µM); MIC (Cl. perfringens 02441): 0.39 µg/mL (≈ 0.245 µM); ED50 (50% effective dose) [17]: 0.99 mg/kg/dose; ED50 (50% effective dose) [18]: 1.91 mg/kg/dose; ED50 (50% effective dose) [19]: 0.19 mg/kg/dose; ED50 (50% effective dose) [20]: 0.14 mg/kg/dose
